According to patent US20110105389A1 (priority 2009, published 2011):

Columns and labels:
[1] = Pharmacokinetic analysis (intravenous and oral), Method B9; assay type: in vivo; conditions: Table 10b
Description: B9. Pharmacokinetic Analysis
The pharmacokinetic (PK) behavior of compounds of the invention and their pharmaceutical compositions can be ascertained by methods well known to those skilled in the art and can be used to investigate the pharmacokinetic parameters (elimination half-life, total plasma clearance, etc.) for intravenous, subcutaneous and oral administration of these substances. (Wilkinson, G. R. “Pharmacokinetics: The Dynamics of Drug Absorption, Distribution, and Elimination” in Goodman & Gilman's The Pharmacological Basis of Therapeutics, Tenth Edition, Hardman, J. G.; Limbird, L. E., Eds., McGraw Hill, Columbus, Ohio, 2001, Chapter 1.) See also U.S. Pat. Nos. 7,476,653; 7,491,695; Intl. Pat. Appl. WO 2008/033328 and U.S. Patent Appl. Publ. 2008/0194672. As an example, compound 1505 has the PK profile below.
The determination of PK parameters for additional representative compounds of the invention is presented in the Examples.
A detailed analysis of the pharmacokinetic profile of representative compounds of the invention was conducted using the procedures outlined in Method B9.
A dose level of 2 mg/mL for intravenous administration and 8 mg/mL for oral administration were typically employed.

[2] = target: T1, GHS-R1a receptor (HEK293 cells expressing GHS-R1a receptor) (Homo sapiens, UniProt Q92847); assay: Fluorescence functional assay (ghrelin receptor), Method B2, agonist and antagonist mode; assay type: cell-based; conditions: functional activity as an antagonist at the ghrelin receptor, Methods B2 and B3
T1 construct: host or cells: HEK293
Description: • 1. ImageTrak Epi-Fluorescence system (Perkin-Elmer) • 2. MultiDrop TiterTek • 3. CO2 incubators: 5% CO2, humidified, 37° C.
• 1. Hanks' BSS without phenol red (Life Technologies) • 2. Hepes buffer • 3. Probenecid (Sigma) • 4. […] Falcon cell culture 96-well black/clear bottom plates • 6. 0.05% trypsin-EDTA • 7. Cells: HEK293 cells expressing GHS-R1a receptor (Perkin-Elmer BioSignal) were grown in DMEM (Dulbecco's Modified Eagles Medium) with 10% FBS, 1% sodium pyruvate, 1% NEAA and 400 μg/mL geneticin • 8. […] [D-Lys^3]-GHRP-6 (reference antagonist, Phoenix #031-22) • 10. Assay buffer: HBSS-20 mM Hepes containing 2.5 mM probenecid and 0.1% BSA (bovine serum albumin); pH 7.4
Stock solutions of compounds (10 mM in 100% DMSO) were provided frozen on dry ice and stored at −80° C. prior to use. […] Assay plates were then prepared by appropriate dilution in assay buffer.
Typical Final Test Concentrations (N=10) for Test Compounds (agonist):
Typical Final Test Concentrations (N=10) for Test Compounds (antagonist):
Cells were maintained in culture as indicated above. The cells were harvested at a confluency of 70-90% the day before the experiment. Growth medium was removed and the cells rinsed briefly with PBS without Ca^+2 and Mg^+2. 0.05% Trypsin was added and the plates incubated at 37° C. for 5 min to detach the cells. DMEM medium supplemented with 10% FBS was added to inactivate the trypsin and determine the cell concentration. The inoculum was adjusted to a final concentration of 200 cells/μL and dispensed at 200 μL per well into a 96-well block plate. The plates were, incubated at 37° C. overnight.
The plates were removed from the incubator and the media removed by inversion of the plates. Calcium-3 dye, 50 μL, was loaded and then incubated for 1 h at 37° C. The plate was again inverted and then 25 μL of assay buffer added. The plates were then transferred to the ImageTrak system for analysis. For agonist testing, after reading for ten (10) sec, 25 μL of 2× test compound or control was injected into the assay plate. Fluorescence was monitored for an additional 50 sec. A reading was taken every two (2) seconds for a total of 30 readings per assay point.
For antagonist testing, after reading for ten (10) sec, 12.5 μL of 3× test compound or control was injected into the assay plate and allowed to react for three (3) min.
Concentration response curves were analyzed using GraphPad Prism (GraphPad Software, San Diego, Calif.) by non-linear regression analysis (sigmoidal dose-response). EC50 values are calculated using GraphPad.
Emax values were calculated using the following formula: […]
Concentration response curves were analyzed using GraphPad Prism (GraphPad Software, San Diego, Calif.) by non-linear regression analysis (sigmoidal dose-response). IC50 values are calculated using GraphPad.
Imax values were calculated using the following formula: […]

[3] = target: T2, ghrelin receptor (HEK-GHSR1 stable cells) (Homo sapiens, UniProt Q92847); assay: Ghrelin receptor inverse agonist assay (HTRF IP-one), Method B4; assay type: cell-based; conditions: inverse agonist at the ghrelin receptor, Method B4
T2 construct: expressed in transfected cells
Description: B4. Ghrelin Receptor Inverse Agonist Assay […]
In addition, the following method can be utilized to assay for inverse agonist activity. (Thomsen, W.; et al. Curr. Opin. Biotechnol. 2005, 16, 655-665; Tozawa-Takahashi F; et al., 11th SBS Annual Conference. September 2005, Geneva; Trinquet, E.; Fink, M.; Bazin, H.; et al. Anal. Biochem. 2006, 358, 126-135; Bergsdorf, C.; Kropp-Goerkis, C.; Kaehler, I.; Ketscher, L.; Boerner, U.; Parczyk, K.; Bader, B. Assay Drug Dev. Technol. 2008, 6, 39-53.)
• 1. Remove culture medium from the plate by inversion. • 2. Add 70 μl of compound/well. • 3. Incubate 30 min at 37° C. • 4. Stop the reaction by adding 15 μl of lysis buffer/well. • 5. Add 15 μl of d2/well. • 6. Add 15 μl of Anti-IP1 cryptate/well. • 7. Incubate 1 h at room temp on an orbital shaker at 100 RPM. • 8. Read the fluorescence in a plate reader (Tecan GeniosPro or similar)
The above sequence was performed using the HTRF IP-one kit (CisBio cat#62P1APEC). For the simultaneous assay of multiple test compounds, 96-well plates can be utilized in this assay (white plate with flat-bottom well, Falcon #353296). These were seeded overnight with 100 000 of HEK-GHSR1 stable cells/well. • Wells A1 and A2 of each plate are used as negative control (wells without d2). Compounds are typically tested in replicate at the following concentrations:
Compounds are stored at 10 mM in 100% DMSO.
1st dilution 1/10 in 100% DMSO (1 mM final concentration).
2nd dilution 1/10 in H2O (0.1 mM final concentration).
Other dilutions are performed in a 96-well plate in stimulation buffer.
The results for representative compounds of the invention are provided in the Examples.

[4] = target: T3, human ghrelin receptor (GRLN, growth hormone secretagogue receptor, hGHS-R1a) (Homo sapiens, UniProt Q92847); assay: Competitive radioligand binding assay (ghrelin receptor), Method B1; conditions: Ghrelin receptor binding activity, Method B1
T3 construct: purchased PerkinElmer BioSignal #RBHGHSM, lot#1887; host or cells: HEK-293 cells, stably transfected (membranes)
How it was run: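 Filtration competition format: bound radioactivity counted after GF/C harvesting and cold 50 mM Tris-HCl washes. Incubation lasted 30 min at room temperature in Hepes pH 7.4 buffer with Ca2+, Mg2+, EDTA and 0.4% BSA (DMSO ≤0.1% final); values from variable-slope non-linear regression.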

[5] = 2 mg/mL intravenous typically employed

T2 sequence (Q92847 whole entry): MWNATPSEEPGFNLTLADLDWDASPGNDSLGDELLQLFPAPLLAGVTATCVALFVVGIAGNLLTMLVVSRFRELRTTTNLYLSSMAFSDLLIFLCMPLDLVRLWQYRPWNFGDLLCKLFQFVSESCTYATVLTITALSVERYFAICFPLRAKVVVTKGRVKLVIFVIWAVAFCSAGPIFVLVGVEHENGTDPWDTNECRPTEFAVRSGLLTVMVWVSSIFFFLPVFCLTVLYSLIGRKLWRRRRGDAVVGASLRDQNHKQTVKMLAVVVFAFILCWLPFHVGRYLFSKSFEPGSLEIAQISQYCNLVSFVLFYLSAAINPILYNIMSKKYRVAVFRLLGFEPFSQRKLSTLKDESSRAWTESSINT
T3 sequence (Q92847 whole entry): as above
T1 sequence (Q92847 whole entry): as above

| Structure (SMILES) | % F ([1]; 2 mg/mL intravenous and 8 mg/mL oral typically employed) [%] | Cl [1, 5] [mL/min/kg] | t1/2 [1, 5] [h] | Antagonist Activity [2] | IC50 [3] [nM] | IC50 [4] [nM] |
| --- | --- | --- | --- | --- | --- | --- |
| CC1CCc2ccccc2OCCNC(C(C)(C)C)C(=O)N(C)C(C(C)O)C(=O)NC(Cc2cccc(F)c2)C(=O)N1 (centres unmarked) [Compound 1796] |  |  |  |  | 10 to 50 | 1 to 10 |
| CC(O)C1C(=O)NC(Cc2ccccc2)C(=O)NCC2CCc3cccc(c3C2)OCCNC(C2CCCCC2)C(=O)N1C (centres unmarked) [Compound 1797] |  |  |  |  | 100 to 500 | 10 to 100 |
| CCC(C)C1NCCOc2cccc3c2CC(CC3)CNC(=O)C(Cc2ccccc2)NC(=O)C(C(C)O)N(C)C1=O (centres unmarked) [Compound 1798] |  |  |  |  | 100 to 500 | 1 to 10 |
| CCC(C)C1NCCOc2cccc(F)c2C=CCNC(=O)C(Cc2ccc(Cl)cc2)NC(=O)C(C(C)O)N(C)C1=O (centres unmarked) [Compound 1799] |  |  |  | C (C = 10-100 nM) | 50 to 100 | 1 to 10 |
| CC1CCc2ccccc2OCCNC(C(C)C)C(=O)N(C)C(C(C)O)C(=O)NC(Cc2c[nH]c3ccc(F)cc23)C(=O)N1 (centres unmarked) [Compound 1801] |  |  |  | B (B = 1-10 nM) | 10 to 50 | 1 to 10 |
| Cc1ccc2[nH]cc(CC3NC(=O)C(C(C)O)N(C)C(=O)C(C(C)C)NCCOc4ccccc4CCC(C)NC3=O)c2c1 (centres unmarked) [Compound 1802] |  |  |  |  | 10 to 50 | 1 to 10 |
| CCC1CCc2ccc(F)cc2OCCNC(C(C)C)C(=O)N(C)C(C(C)O)C(=O)NC(C(C)c2ccccc2)C(=O)N1 (centres unmarked) [Compound 1805] |  |  |  | C (C = 10-100 nM) | 100 to 500 | 10 to 100 |
| CCC1CCc2ccc(Cl)cc2OCCNC(C(C)C)C(=O)N(C)C(C(C)O)C(=O)NC(Cc2c[nH]c3ccccc23)C(=O)N1 (centres unmarked) [Compound 1806] |  |  |  | C (C = 10-100 nM) | 100 to 500 | 10 to 100 |
| CCC1CCc2ccccc2OCCNC(C(C)C)C(=O)N(C)C(C(C)O)C(=O)NC(Cc2c[nH]c3ccc(F)cc23)C(=O)N1 (centres unmarked) [Compound 1808] |  |  |  | B (B = 1-10 nM) | 10 to 50 | 1 to 10 |
| CC(C)C1NCCOc2cccc(F)c2C=CCNC(=O)C(C(C)c2ccccc2)NC(=O)C(C(C)O)N(C)C1=O (centres unmarked) [Compound 1811] |  |  |  |  | 100 to 500 | 10 to 100 |
| CCC1CCc2ccc(F)cc2OCCNC(C(C)C)C(=O)N(C)C(C(C)O)C(=O)NC(Cc2cn(S(=O)(=O)c3ccc(C)cc3)c3ccccc23)C(=O)N1 (centres unmarked) [Compound 1812] |  |  |  | C (C = 10-100 nM) | 50 to 100 | 10 to 100 |
| CCC1CCc2ccc(Cl)cc2OCCNC(C(C)C)C(=O)N(C)C(C(C)O)C(=O)NC(Cc2ccccc2)C(=O)N1 (centres unmarked) [Compound 1813] |  |  |  |  | 100 to 500 | 100 to 500 |
| CCC1CCc2ccc(F)cc2OCCNC(C(C)C)C(=O)N(C)C(C(C)O)C(=O)NC(Cc2ccco2)C(=O)N1 (centres unmarked) [Compound 1824] |  |  |  |  | 100 to 500 | 10 to 100 |
| CCC(C)C1NCCOc2ccccc2C=CCNC(=O)C(Cc2c[nH]c3ccc(F)cc23)NC(=O)C(C(C)O)N(C)C1=O (centres unmarked) [Compound 1827] |  |  |  |  | 100 to 500 | 10 to 100 |
| CCC1CCc2ccc(F)cc2OCCNC(CC)C(=O)N(C)C(C(C)O)C(=O)NC(Cc2c[nH]c3ccccc23)C(=O)N1 (centres unmarked) [Compound 1853] |  |  |  |  | 100 to 500 | 10 to 100 |

Further lines, results first:

| % F ([1]; 2 mg/mL intravenous and 8 mg/mL oral typically employed) [%] | Cl [1, 5] [mL/min/kg] | t1/2 [1, 5] [h] | Antagonist Activity [2] | IC50 [3] [nM] | IC50 [4] [nM] | Structure (SMILES) |
| --- | --- | --- | --- | --- | --- | --- |
| 50 ± 14 | 6 ± 2 | 2.77 ± 0.033 | C (C = 10-100 nM) | 100 to 500 | 10 to 100 | CCC1CCc2ccc(F)cc2OC(C)CNC(C2(C)CC2)C(=O)N(C)C(C(C)O)C(=O)NC(Cc2ccccc2)C(=O)N1 (centres unmarked) [Compound 1705] |
|  |  |  | B (B = 1-10 nM) | 50 to 100 | 10 to 100 | CC[C@@H]1CCc2ccc(F)cc2OCCN[C@@H](C2(C)CC2)C(=O)N(C)[C@@H](C(C)O)C(=O)N[C@H](Cc2cccc(F)c2)C(=O)N1 (some centres unmarked) [Compound 1747] |
|  |  |  | B (B = 1-10 nM) | 50 to 100 | 10 to 100 | CC[C@@H]1CCc2ccc(F)cc2OCCN[C@@H](C(C)C)C(=O)N(C)[C@@H](C(C)O)C(=O)N[C@H](Cc2ccc(Cl)cc2)C(=O)N1 (some centres unmarked) [Compound 1753] |
|  |  |  |  | 100 to 500 | 100 to 500 | CCC1CCc2ccc(Cl)cc2OCCNC(C(C)C)C(=O)N(C)C(C(C)O)C(=O)NC(Cc2cccc(F)c2)C(=O)N1 (centres unmarked) [Compound 1814] |
|  |  |  |  | 100 to 500 | 100 to 500 | CCC1CCc2ccc(F)cc2OCCNC(CC)C(=O)N(C)C(C(C)O)C(=O)NC(Cc2ccccc2)C(=O)N1 (centres unmarked) [Compound 1854] |
|  |  |  |  | 100 to 500 | 10 to 100 | CCC1CCc2ccc(F)cc2OCCNC(CC)C(=O)N(C)C(C(C)O)C(=O)NC(Cc2ccc(F)cc2)C(=O)N1 (centres unmarked) [Compound 1855] |
|  |  |  |  | 10 to 50 | 1 to 10 | CC(O)[C@H]1C(=O)N[C@H](Cc2ccc(Cl)cc2)C(=O)N[C@H](C)CCc2ccc(F)cc2OCCN[C@@H](C2(C)CC2)C(=O)N1C (some centres unmarked) [Compound 1872] |
|  |  |  |  | 50 to 100 | 1 to 10 | CC[C@@H]1CCc2ccc(F)cc2OCCN[C@@H](C2(C)CC2)C(=O)N(C)[C@@H](C(C)O)C(=O)N[C@H](Cc2ccc(Cl)cc2)C(=O)N1 (some centres unmarked) [Compound 1875] |
|  |  |  |  | 10 to 50 | 10 to 100 | CC(O)[C@H]1C(=O)N[C@H](Cc2ccc(F)cc2)C(=O)NCC#Cc2ccccc2OCCN[C@@H](C2(C)CC2)C(=O)N1C (some centres unmarked) [Compound 1879] |
|  |  |  |  | 10 to 50 | 1 to 10 | CC(O)[C@H]1C(=O)N[C@H](Cc2ccc(F)cc2)C(=O)NCC#Cc2c(F)cccc2OCCN[C@@H](C2(C)CC2)C(=O)N1C (some centres unmarked) [Compound 1884] |
